Source: ChEMBL document CHEMBL6087456 (J Med Chem, 2025)
Values after ≈ are worked out from the molar mass of the structure shown. Active and inactive are the calls of the source. The calls are words filed in the database; no cut-off is given here.

Key:
[1] = Kinetic solubility of compound at pH 6.5 measured after 30 mins by nephelometry; type: physicochemical; conditions: buffer, pH 6.5, read-out: Kinetic_solubility
[2] = Plasma protein binding in rat measured for 6 hrs by rapid equilibrium dialysis; type: ADME, cell-free
[3] = target: T1, Cytochrome P450 2D6 (Homo sapiens, UniProt P10635); experiment: Inhibition of CYP2D6 in human liver microsomes; type: ADME, Microsome
T1 sequence (P10635 whole entry): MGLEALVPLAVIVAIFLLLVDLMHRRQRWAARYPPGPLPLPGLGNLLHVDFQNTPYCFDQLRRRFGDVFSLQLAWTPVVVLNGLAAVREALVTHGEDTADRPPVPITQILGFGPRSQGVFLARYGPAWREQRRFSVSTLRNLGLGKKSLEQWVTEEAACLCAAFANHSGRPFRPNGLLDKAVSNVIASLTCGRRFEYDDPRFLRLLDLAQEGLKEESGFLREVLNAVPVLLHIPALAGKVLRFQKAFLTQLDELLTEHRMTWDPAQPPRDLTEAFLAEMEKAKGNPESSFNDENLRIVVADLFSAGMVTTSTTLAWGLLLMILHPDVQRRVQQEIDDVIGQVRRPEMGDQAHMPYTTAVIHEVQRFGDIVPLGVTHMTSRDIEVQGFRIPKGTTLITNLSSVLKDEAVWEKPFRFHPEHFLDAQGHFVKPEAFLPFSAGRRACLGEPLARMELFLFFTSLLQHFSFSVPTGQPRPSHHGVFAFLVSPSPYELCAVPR

[4] = test system: Plasmodium falciparum; experiment: Antimalarial activity against erythrocyte asexual stage Plasmodium falciparum 3D7 0087/N9 infected in humanized SCID mouse model assessed as inhibition of maturation of trophozoites to schizonts at first life cycle at 1 to 30 mg/kg administered once daily measured after 48 hrs; type: functional, organism-based; conditions: dose 1-30 mg/kg
[5] = test system: Plasmodium falciparum; experiment: Prevention of terminal maturation of schizonts in humanized SCID mouse model infected with erythrocyte asexual stage Plasmodium falciparum 3D7 0087/N9 at 1 to 30 mg/kg administered once daily for 6 days; type: functional, organism-based; conditions: dose 1-30 mg/kg, time 6.0 day
[6] = Toxicity in humanized SCID mouse model infected with erythrocyte asexual stage Plasmodium falciparum 3D7 0087/N9 assessed as drug tolerance at 1 to 30 mg/kg administered once daily for 6 days; type: organism-based; conditions: in vivo, dose 1-30 mg/kg, time 6 day
[7] = Permeability across apical to basal side in human Caco-2 cells; type: ADME, cell-based
[8] = Metabolic stability in human liver microsomes assessed as intrinsic clearance at 0.5 uM incubated for 60 mins in presence of NADPH by tandem quadrupole-Time of Flight MS; type: ADME, Microsome; conditions: 1 h
[9] = test system: Plasmodium falciparum; experiment: Antiparasitic activity against asexual blood stage Plasmodium falciparum 3D7 incubated for 72 hrs by SYBR Green assay; type: functional, organism-based; conditions: 3D7, 72 h
[10] = target: T2, Cytochrome P450 1A2 (Homo sapiens, UniProt P05177); experiment: Inhibition of CYP1A2 in human liver microsomes; type: ADME, Microsome
T2 sequence (P05177 whole entry): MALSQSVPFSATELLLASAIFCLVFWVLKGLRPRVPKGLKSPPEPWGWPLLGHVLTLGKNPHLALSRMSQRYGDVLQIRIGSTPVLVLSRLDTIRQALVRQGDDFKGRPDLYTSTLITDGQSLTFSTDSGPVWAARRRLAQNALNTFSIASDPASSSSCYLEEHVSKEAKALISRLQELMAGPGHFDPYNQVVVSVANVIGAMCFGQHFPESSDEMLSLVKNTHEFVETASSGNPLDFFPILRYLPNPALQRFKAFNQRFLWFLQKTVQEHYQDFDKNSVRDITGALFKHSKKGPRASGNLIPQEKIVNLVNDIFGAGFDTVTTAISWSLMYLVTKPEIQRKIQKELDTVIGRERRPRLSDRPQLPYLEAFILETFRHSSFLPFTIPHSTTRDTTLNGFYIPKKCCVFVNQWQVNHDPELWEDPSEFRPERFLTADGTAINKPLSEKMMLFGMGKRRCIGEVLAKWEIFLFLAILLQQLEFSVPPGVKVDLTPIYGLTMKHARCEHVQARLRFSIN

[11] = Apparent half life in humanized SCID mouse model at 30 mg/kg, po; type: ADME, organism-based; conditions: in vivo, read-out: t1/2(app) (converted)
[12] = target: T1, Cytochrome P450 2D6; experiment: Time-dependent inhibition of CYP2D6 in human liver microsomes; type: ADME, Microsome
[13] = target: T3, Cytochrome P450 2B6 (Homo sapiens, UniProt P20813); experiment: Inhibition of CYP2B6 in human liver microsomes; type: ADME, Microsome
T3 sequence (P20813 whole entry): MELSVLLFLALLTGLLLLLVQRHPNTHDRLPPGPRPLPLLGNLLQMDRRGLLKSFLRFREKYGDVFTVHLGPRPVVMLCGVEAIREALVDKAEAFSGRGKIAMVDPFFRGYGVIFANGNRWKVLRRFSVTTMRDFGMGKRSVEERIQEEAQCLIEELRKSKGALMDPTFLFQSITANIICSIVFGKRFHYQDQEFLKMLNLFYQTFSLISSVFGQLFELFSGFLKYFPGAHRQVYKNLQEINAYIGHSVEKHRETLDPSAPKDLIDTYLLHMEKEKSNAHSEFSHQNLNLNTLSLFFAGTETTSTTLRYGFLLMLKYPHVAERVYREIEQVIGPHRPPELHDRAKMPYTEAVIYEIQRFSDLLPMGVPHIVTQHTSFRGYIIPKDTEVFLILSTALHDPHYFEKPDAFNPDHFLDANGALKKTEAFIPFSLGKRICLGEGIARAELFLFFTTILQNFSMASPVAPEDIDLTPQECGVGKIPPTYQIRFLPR

[14] = target: Cytochrome P450 3A5 (Homo sapiens, UniProt P20815); experiment: Time-dependent inhibition of CYP3A5 in human liver microsomes; type: ADME, Microsome
Sequence of Cytochrome P450 3A5 (P20815 whole entry): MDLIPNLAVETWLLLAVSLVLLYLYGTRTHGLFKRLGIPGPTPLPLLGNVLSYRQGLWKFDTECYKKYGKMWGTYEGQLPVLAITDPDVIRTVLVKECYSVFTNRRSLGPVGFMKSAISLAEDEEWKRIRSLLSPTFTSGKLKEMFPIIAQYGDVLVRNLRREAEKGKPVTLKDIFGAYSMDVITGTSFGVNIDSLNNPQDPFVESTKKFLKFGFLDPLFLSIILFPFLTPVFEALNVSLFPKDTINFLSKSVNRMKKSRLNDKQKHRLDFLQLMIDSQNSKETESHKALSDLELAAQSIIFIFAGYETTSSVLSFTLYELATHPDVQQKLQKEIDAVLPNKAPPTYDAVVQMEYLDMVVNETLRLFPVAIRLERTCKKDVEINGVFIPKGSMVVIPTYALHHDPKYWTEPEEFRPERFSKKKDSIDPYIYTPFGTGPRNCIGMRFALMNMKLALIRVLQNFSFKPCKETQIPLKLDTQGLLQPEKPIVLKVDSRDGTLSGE

[15] = target: Cytochrome P450 2C9 (Homo sapiens, UniProt P11712); experiment: Time-dependent inhibition of CYP2C9 in human liver microsomes; type: ADME, Microsome
Sequence of Cytochrome P450 2C9 (P11712 whole entry, the tested form may be a part): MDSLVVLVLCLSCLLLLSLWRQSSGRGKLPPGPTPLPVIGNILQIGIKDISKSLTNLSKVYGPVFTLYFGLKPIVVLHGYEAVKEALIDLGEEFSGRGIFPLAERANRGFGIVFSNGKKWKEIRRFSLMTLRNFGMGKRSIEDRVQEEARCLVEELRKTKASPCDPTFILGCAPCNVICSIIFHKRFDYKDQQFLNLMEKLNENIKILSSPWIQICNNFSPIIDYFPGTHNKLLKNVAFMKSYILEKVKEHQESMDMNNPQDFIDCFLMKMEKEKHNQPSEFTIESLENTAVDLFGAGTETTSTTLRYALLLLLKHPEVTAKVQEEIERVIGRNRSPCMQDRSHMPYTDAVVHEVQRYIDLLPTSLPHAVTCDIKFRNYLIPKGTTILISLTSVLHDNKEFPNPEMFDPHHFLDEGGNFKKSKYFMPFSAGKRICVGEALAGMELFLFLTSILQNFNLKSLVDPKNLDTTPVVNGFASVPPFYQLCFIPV

[16] = target: T4, Dihydroorotate dehydrogenase (quinone), mitochondrial (Plasmodium falciparum (isolate 3D7), UniProt Q08210); experiment: Inhibition of N-terminal His6-tagged recombinant Plasmodium falciparum DHODH (158 to 569 residues) N-terminally truncated soluble domain extracted from Escherichia coli phage resistant BL21-DE3 using CoQD/DHA/DCIP as substrates
T4 sequence (Q08210 whole entry): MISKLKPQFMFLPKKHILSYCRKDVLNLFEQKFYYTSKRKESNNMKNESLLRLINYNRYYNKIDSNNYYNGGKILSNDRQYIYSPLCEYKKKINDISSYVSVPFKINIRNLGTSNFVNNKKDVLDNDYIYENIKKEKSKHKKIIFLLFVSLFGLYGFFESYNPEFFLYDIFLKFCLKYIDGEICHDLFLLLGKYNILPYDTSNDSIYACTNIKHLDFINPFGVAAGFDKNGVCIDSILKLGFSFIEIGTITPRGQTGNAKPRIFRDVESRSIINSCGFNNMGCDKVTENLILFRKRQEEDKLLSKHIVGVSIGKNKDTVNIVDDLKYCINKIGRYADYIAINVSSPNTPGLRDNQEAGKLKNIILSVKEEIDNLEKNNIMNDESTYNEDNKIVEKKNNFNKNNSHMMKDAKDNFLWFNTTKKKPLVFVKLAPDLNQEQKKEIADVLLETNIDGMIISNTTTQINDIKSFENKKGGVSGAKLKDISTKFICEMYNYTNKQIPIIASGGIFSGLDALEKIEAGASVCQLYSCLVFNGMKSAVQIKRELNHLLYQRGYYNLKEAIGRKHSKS

[17] = Protein binding in human hepatocytes; type: ADME, cell-based, Hepatocyte; conditions: read-out: PB (converted)
[18] = Oral bioavailability in overnight-fasted male Sprague-Dawley rat at 3 mg/kg measured upto 72 hrs by LCMS analysis; type: ADME, organism-based; conditions: in vivo
[19] = Drug excretion in Sprague-Dawley rat urine at 1 mg/kg, iv; type: ADME, organism-based; conditions: read-out: Drug excretion

For `Cn1nc2c(=O)n(C3CC3)cnc2c1[C@](O)(c1cnc(C(F)(F)F)c(Cl)c1)C(F)(F)F`, which solubility kinetic at 0.5 h [1] is on record?
The solubility kinetic at 0.5 h was 80 µM (≈ 37.4 µg/mL).

And the PPB [2]?
The PPB was 97.2%.

And the IC50 [3]?
Its IC50 is greater than 20000 nM.

And the Activity [4]?
Its Activity is “Active”.

And the Activity [5]?
Its Activity is “inactive”.

And the Activity [6]?
The Activity was “Non-toxic”.

What about the permeability [7] of the same compound?
The permeability was “Permeable”.

What about the “intrinsic clearance (CLint)” value [8] of the same compound?
Its value is less than 3 µL/min/mg.

What about the EC50 [9] of the same compound?
Its EC50 is 1 nM.

What about the IC50 [10] of the same compound?
Its IC50 is greater than 20000 nM.

And the half-life [11]?
The half-life was 7.8 h.

What about the TDI [12] of the same compound?
The TDI was “Not_active”.

And the IC50 [13]?
Its IC50 is greater than 20000 nM.

And the TDI [14]?
The TDI was “Not_active”.

And the TDI [15]?
The TDI was “Not_active”.

What about the IC50 [16] of the same compound?
Its IC50 is 15 nM.

What about the fraction unbound [17] of the same compound?
Its fraction unbound is 0.535.

And the F [18]?
Its F is greater than 89%.

And the dose excreted [19]?
Its dose excreted is less than 1%.
